In US20200405697A1, “Antitumor Agent” (Taiho Pharmaceutical Co., Ltd, priority 2017, published 2020):

How the values were obtained:
[1] = target: T1, human RNR (histidine tagged human M1 and human M2 proteins) (Homo sapiens, UniProt P23921); test: Human RNR inhibition effect (dCDP formation from CDP); assay type: biochemical; conditions: 10 μM CDP, 37° C. for 30 minutes, read-out: RNR inhibitory activity IC50
T1 construct: made in house; host or cells: Escherichia coli
T1 sequence (P23921 1-792): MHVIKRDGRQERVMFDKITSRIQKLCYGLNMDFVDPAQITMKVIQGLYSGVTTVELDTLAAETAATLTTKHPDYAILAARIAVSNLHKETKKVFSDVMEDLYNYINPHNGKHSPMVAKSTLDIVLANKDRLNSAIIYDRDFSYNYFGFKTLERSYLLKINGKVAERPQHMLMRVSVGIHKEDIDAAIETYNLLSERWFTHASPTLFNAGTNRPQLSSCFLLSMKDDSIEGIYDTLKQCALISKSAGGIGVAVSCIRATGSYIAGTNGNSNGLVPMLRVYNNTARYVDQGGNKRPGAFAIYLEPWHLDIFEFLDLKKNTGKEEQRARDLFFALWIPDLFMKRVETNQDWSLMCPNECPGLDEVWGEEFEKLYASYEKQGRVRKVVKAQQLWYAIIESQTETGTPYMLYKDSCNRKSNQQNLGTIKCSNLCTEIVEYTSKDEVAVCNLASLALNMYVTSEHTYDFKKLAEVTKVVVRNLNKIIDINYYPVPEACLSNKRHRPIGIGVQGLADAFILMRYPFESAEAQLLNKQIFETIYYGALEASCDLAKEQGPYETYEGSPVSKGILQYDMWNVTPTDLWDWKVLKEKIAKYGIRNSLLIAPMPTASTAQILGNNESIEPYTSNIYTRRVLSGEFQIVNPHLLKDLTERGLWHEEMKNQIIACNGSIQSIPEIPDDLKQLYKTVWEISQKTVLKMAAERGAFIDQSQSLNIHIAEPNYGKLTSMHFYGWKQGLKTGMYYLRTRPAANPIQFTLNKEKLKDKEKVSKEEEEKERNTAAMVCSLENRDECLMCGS
Description: The inhibitory activity against the ribonucleotide reduction reaction (RNR inhibitory activity) of the Example compound was determined by measuring the formation of deoxycytidine diphosphate (hereinafter referred to as dCDP) from cytidine diphosphate (hereinafter referred to as CDP) by the following method.
Human M1 subunit (isoform 1, GenBank accession No: NM_001033), to which a histidine tag is fused at the amino terminus, and human M2 subunit (mutant lacking amino terminal 59 amino acids of isoform 2, GenBank accession No: NM_001034), to which a histidine tag is fused, were overexpressed in Escherichia coli and were solubilized after collection, and histidine tagged human M1 and histidine tagged human M2 proteins were purified on a nickel chelate column. A mixture of the histidine tagged human M1 and histidine tagged human M2 proteins was used as RNR in the ribonucleotide reduction reaction. [to]
First, Example compounds were serially diluted with DMSO. Next, human M1 protein and human M2 protein were added to a 0.02% aqueous albumin solution derived from fetal bovine serum, a DMSO solution of the Example compound or the control DMSO solution (final concentration of DMSO was 1%) was added, and the mixture was allowed to stand for 20 minutes. Thereafter, the reaction buffer [50 mM HEPES buffer (pH 7.2) at the final concentration, 4 mM magnesium acetate at the final concentration, 100 mM potassium chloride at the final concentration, 6 mM dithiothreitol at the final concentration, 2 mM adenosine triphosphate at the final concentration, 0.24 mM nicotinamide adenine dinucleotide phosphate at final concentration] and 10 μM CDP at the final concentration were added and incubated at 37° C. for 30 minutes to perform ribonucleotide reduction reaction. Immediately after the reaction, the reaction was stopped by heating at 100° C. for 15 minutes, followed by centrifugation at 10,000 rpm for 10 minutes. After the centrifugation, a portion (5 μL) of the resulting supernatant was analyzed with a high performance liquid chromatography (Shimadzu Corporation, Prominence) using Shim-pack XR-ODS (manufactured by Shimadzu GLC Co., 3.0×100 mm).

[2] = system: A549 (Human lung cancer cell line); test: Effect of combination of sulfonamide compound and other antitumor agent (CellTiter-Glo, combination index): A549
Description: Each cell line was seeded at 90 L/well to a 96-well culture plate (Thermo Fisher Scientific, Inc.) according to the above tables. The cell-seeded plate was cultured in an incubator set to 37° C. and 500 CO2. On the day following seeding, varying concentrations of the sulfonamide compound and the other antitumor agent were added in combination to the cells. […] The serial dilutions of each compound, or DW was added at 5μL/well to the plate such that each compound and DW, or the sulfonamide compound and the other antitumor agent were combined. […] The plate after the addition was cultured at 37° C. for 3 days under 5% CO2 conditions.
Three days later, CellTiter-Glo(R) 2.0 Reagent (Promega Corporation) was added at 100 μL/well, and the amount of luminescence was measured using a plate reader EnSpire(R) Multimode Plate Reader (PerkinElmer Co., Ltd.).
An average value from 3 wells was calculated as to each drug condition from the obtained data, and cell survival rate normalized against control wells supplemented with the vehicle (DW) was calculated. A Fa (fractional inhibition) value was calculated by subtracting the cell survival rate from 1.

[3] = Example Compound 14 4420 nM + 5-Fluorouracil 2700 nM
[4] = Example Compound 209A 952 nM + 5-Fluorouracil 4310 nM
[5] = Example Compound 235A 1170 nM + 5-Fluorouracil 4310 nM
[6] = Example Compound 14 4420 nM + Azacytidine 4080 nM
[7] = Example Compound 209A 635 nM + Azacytidine 2740 nM
[8] = Example Compound 209A 952 nM + Azacytidine 4110 nM
[9] = Example Compound 235A 780 nM + Azacytidine 2740 nM
[10] = Example Compound 235A 1170 nM + Azacytidine 4110 nM
[11] = Example Compound 14 4420 nM + Cabozantinib 6000 nM
[12] = Example Compound 209A 952 nM + Cabozantinib 6000 nM
[13] = Example Compound 235A 1170 nM + Cabozantinib 6010 nM
[14] = Example Compound 14 4420 nM + Etoposide 3790 nM
[15] = Example Compound 209A 952 nM + Etoposide 3790 nM
[16] = Example Compound 235A 1170 nM + Etoposide 3790 nM
[17] = Example Compound 14 4420 nM + Lapatinib 6000 nM
[18] = Example Compound 209A 952 nM + Lapatinib 6000 nM
[19] = Example Compound 235A 1170 nM + Lapatinib 6010 nM
[20] = Example Compound 14 4420 nM + Luminespib 13.5 nM
[21] = Example Compound 209A 952 nM + Luminespib 13.5 nM
[22] = Example Compound 235A 1750 nM + Luminespib 8.13 nM
[23] = Example Compound 14 4420 nM + Midostaurin 251 nM
[24] = Example Compound 209A 952 nM + Midostaurin 251 nM
[25] = Example Compound 235A 1170 nM + Midostaurin 251 nM
[26] = Example Compound 14 4420 nM + Olaparib 14800 nM
[27] = Example Compound 209A 952 nM + Olaparib 14800 nM
[28] = Example Compound 235A 1170 nM + Olaparib 14800 nM
[29] = Example Compound 14 4420 nM + Oxaliplatin 1060 nM
[30] = Example Compound 209A 952 nM + Oxaliplatin 1060 nM
[31] = Example Compound 235A 1170 nM + Oxaliplatin 1060 nM
[32] = Example Compound 14 2950 nM + Sunitinib 1870 nM
[33] = Example Compound 14 4420 nM + Sunitinib 2800 nM
[34] = Example Compound 209A 635 nM + Sunitinib 1870 nM
[35] = Example Compound 209A 952 nM + Sunitinib 2800 nM
[36] = Example Compound 235A 780 nM + Sunitinib 1870 nM
[37] = Example Compound 235A 1170 nM + Sunitinib 2810 nM
[38] = Example Compound 14 4420 nM + Talazoparib 7990 nM
[39] = Example Compound 209A 952 nM + Talazoparib 8000 nM
[40] = Example Compound 235A 1170 nM + Talazoparib 8000 nM
[41] = Example Compound 14 1970 nM + Trifluridine 288 nM
[42] = Example Compound 14 2950 nM + Trifluridine 431 nM
[43] = Example Compound 209A 635 nM + Trifluridine 431 nM
[44] = Example Compound 235A 780 nM + Trifluridine 431 nM

COc1cc(Cl)ccc1S(=O)(=O)N[C@H](c1n[nH]c(=O)o1)C(O)c1c(F)ccc(C)c1C (mixture of isomers) [Example 290, 4-chloro-N-((1S)-2-(6-fluoro-2,3-dimethylphenyl)-2-hydroxy-1-(5-oxo-4,5-dihydro-1,3,4-oxadiazol-2-yl)ethyl)-2-methoxybenzenesulfonamide] gave an IC50 [1] of 840 nM.
C[C@H](c1c(F)ccc2ccccc12)[C@H](NS(=O)(=O)c1ccc(Cl)c2c1OCCC2F)c1n[nH]c(=O)o1 (mixture of isomers) [Example 292, 5-chloro-4-fluoro-N-((1S,2R)-2-(2-fluoronaphthalen-1-yl)-1-(5-oxo-4,5-dihydro-1,3,4-oxadiazol-2-yl)propyl)chroman-8-sulfonamide] was tested, and the IC50 [1] was 160 nM.
In the case of O=c1[nH]cc(F)c(=O)[nH]1 [5-Fluorouracil, 5-fluorouracil], the CI value [2, 3] is reported as 0.880, the Fa value [2, 3] is reported as 0.6619 and the CI value [2, 4] is reported as 0.853. For the same compound, the Fa value [2, 4] was 0.7187, the CI value [2, 5] was 0.880 and the Fa value [2, 5] was 0.6738.
With Nc1ncn([C@@H]2O[C@H](CO)[C@@H](O)[C@H]2O)c(=O)n1 [Azacytidine, azacitidine] the CI value [2, 6] was 0.744, the Fa value [2, 6] was 0.7570 and the CI value [2, 7] was 0.850. The Fa value [2, 7] was 0.6005, the CI value [2, 8] was 0.520 and the Fa value [2, 8] was 0.8264. The CI value [2, 9] was 0.822, the Fa value [2, 9] was 0.5392 and the CI value [2, 10] was 0.767. The Fa value [2, 10] was 0.6909.
In the case of COc1cc2nccc(Oc3ccc(NC(=O)C4(C(=O)Nc5ccc(F)cc5)CC4)cc3)c2cc1OC [Cabozantinib, cabozantinib], the CI value [2, 11] is reported as 0.868, the Fa value [2, 11] is reported as 0.7829 and the CI value [2, 12] is reported as 0.486. For the same compound, the Fa value [2, 12] was 0.8982, the CI value [2, 13] was 0.871 and the Fa value [2, 13] was 0.7659.
Work on COc1cc([C@@H]2c3cc4c(cc3[C@@H](O[C@@H]3O[C@@H]5CO[C@@H](C)O[C@H]5[C@H](O)[C@H]3O)[C@H]3COC(=O)[C@H]23)OCO4)cc(OC)c1O [Etoposide, etoposide] yielded a CI value [2, 14] of 0.707, a Fa value [2, 14] of 0.7245 and a CI value [2, 15] of 0.635. The Fa value [2, 15] was 0.7460, the CI value [2, 16] was 0.763 and the Fa value [2, 16] was 0.6978.
For CS(=O)(=O)CCNCc1ccc(-c2ccc3ncnc(Nc4ccc(OCc5cccc(F)c5)c(Cl)c4)c3c2)o1 [Lapatinib, lapatinib], the CI value [2, 17] was 0.512, the Fa value [2, 17] was 0.8641 and the CI value [2, 18] was 0.443. For the same compound, the Fa value [2, 18] was 0.8816, the CI value [2, 19] was 0.417 and the Fa value [2, 19] was 0.8726.
Compound CCNC(=O)c1noc(-c2cc(C(C)C)c(O)cc2O)c1-c1ccc(CN2CCOCC2)cc1 [Luminespib, luminespib] has a CI value [2, 20] of 0.786, a Fa value [2, 20] of 0.8373 and a CI value [2, 21] of 0.832. It also gave a Fa value [2, 21] of 0.8172, a CI value [2, 22] of 0.819 and a Fa value [2, 22] of 0.8795.
CO[C@@H]1[C@H](N(C)C(=O)c2ccccc2)C[C@H]2O[C@]1(C)n1c3ccccc3c3c4c(c5c6ccccc6n2c5c31)C(=O)NC4 [Midostaurin, midostaurin] showed a CI value [2, 23] of 0.719, a Fa value [2, 23] of 0.8117 and a CI value [2, 24] of 0.583. For the same compound, the Fa value [2, 24] was 0.8520, the CI value [2, 25] was 0.775 and the Fa value [2, 25] was 0.7639.
Compound O=C(c1cc(Cc2n[nH]c(=O)c3ccccc23)ccc1F)N1CCN(C(=O)C2CC2)CC1 [Olaparib, olaparib] has a CI value [2, 26] of 0.668, a Fa value [2, 26] of 0.7031 and a CI value [2, 27] of 0.478. For the same compound, the Fa value [2, 27] was 0.7947, the CI value [2, 28] was 0.683 and the Fa value [2, 28] was 0.6832.
Work on O=C1[O][Pt]2([NH][C@@H]3CCCC[C@H]3[NH]2)[O]C1=O [Oxaliplatin, oxaliplatin] yielded a CI value [2, 29] of 0.829, a Fa value [2, 29] of 0.7498 and a CI value [2, 30] of 0.762. The Fa value [2, 30] was 0.7832, the CI value [2, 31] was 0.793 and the Fa value [2, 31] was 0.7355.
For CCN(CC)CCNC(=O)c1c(C)[nH]c(/C=C2\C(=O)Nc3ccc(F)cc32)c1C [Sunitinib, sunitinib], the CI value [2, 32] was 0.693, the Fa value [2, 32] was 0.7017 and the CI value [2, 33] was 0.728. It also gave a Fa value [2, 33] of 0.8248, a CI value [2, 34] of 0.688 and a Fa value [2, 34] of 0.6919. The CI value [2, 35] was 0.723, the Fa value [2, 35] was 0.8234 and the CI value [2, 36] was 0.709. For the same compound, the Fa value [2, 36] was 0.6775, the CI value [2, 37] was 0.675 and the Fa value [2, 37] was 0.8225.
Cn1ncnc1[C@H]1c2n[nH]c(=O)c3cc(F)cc(c23)N[C@@H]1c1ccc(F)cc1 [Talazoparib, talazoparib] was tested, and the CI value [2, 38] was 0.540, the Fa value [2, 38] was 0.7406 and the CI value [2, 39] was 0.422. It also gave a Fa value [2, 39] of 0.7998, a CI value [2, 40] of 0.585 and a Fa value [2, 40] of 0.6990.
Work on O=c1[nH]c(=O)n([C@H]2C[C@H](O)[C@@H](CO)O2)cc1C(F)(F)F [Trifluridine, trifluridine] yielded a CI value [2, 41] of 0.892, a Fa value [2, 41] of 0.4363 and a CI value [2, 42] of 0.844. For the same compound, the Fa value [2, 42] was 0.6485, the CI value ([2]; Example Compound 14 4420 nM + Trifluridine 645 nM) was 0.678 and the CI value ([2]; Example Compound 14 6640 nM + Trifluridine 969 nM) was 0.791. The CI value [2, 43] was 0.897, the Fa value [2, 43] was 0.5907 and the CI value ([2]; Example Compound 209A 952 nM + Trifluridine 646 nM) was 0.733. The CI value ([2]; Example Compound 209A 1430 nM + Trifluridine 970 nM) was 0.775, the CI value [2, 44] was 0.869 and the Fa value [2, 44] was 0.5850. The CI value ([2]; Example Compound 235A 1170 nM + Trifluridine 646 nM) was 0.680 and the CI value ([2]; Example Compound 235A 1750 nM + Trifluridine 967 nM) was 0.739.
